Measurements: PMC3681751, “Identification of a Novel Antimicrobial Peptide from Human Hepatitis B Virus Core Protein Arginine-Rich Domain (ARD)” (PLoS Pathogens, 2013)
Read-outs that look alike come from different tables or passages of the source.

Key:
[1] = system: HepG2 cells; test: Cytotoxicity, MTT assay; format: cell-based, human; conditions: 1 hour at 37°C; HBc147-183 at 100 µM, melittin at 3.125 µM; triplicates
Method: (§1) Cytotoxicity was measured for HepG2, Huh7, HEK293, and Vero cells by MTT assay. Cells were seeded at 10^4 cells/well in a 96-well plate and serial dilutions of peptides were added into each well. PBS was used as a negative control and melittin was used as a positive control. After 1 hour of incubation, the medium were replaced by fresh medium containing 10% MTT solution (Promega), and the plate was incubated for 4 hours in 5% CO2 at 37°C. The absorbance at the wavelength of 595 nm was measured by an ELISA reader (Bio-Rad model 680).

[2] = system: Huh7 cells; test: Cytotoxicity, MTT assay; format: cell-based, human; conditions: 1 hour at 37°C; HBc147-183 at 100 µM, melittin at 3.125 µM; triplicates
Method: as §1

[3] = system: HEK293 cells; test: Cytotoxicity, MTT assay; format: cell-based, human; conditions: 1 hour at 37°C; HBc147-183 at 100 µM, melittin at 3.125 µM; triplicates
Method: as §1

[4] = system: C. albicans (ATCC 10231); format: cell-based, Candida albicans; conditions: fungi, triplicate
Method: (§2) The antimicrobial activities of HBc ARD peptides were tested using a number of bacterial strains from ATCC, including Pseudomonas aeruginosa Migula strain (ATCC 27853, ampicillin-resistant), Pseudomonas aeruginosa Migula strain (ATCC 9027, ampicillin-resistant), Klebsiella pneumoniae strain (ATCC 17593), Escherichia coli strain (ATCC 25922), Staphylococcus aureus subsp. strain (ATCC 25923, methicillin-resistant), Staphylococcus aureus subsp. strain (ATCC 29213, methicillin-resistant), Staphylococcus aureus subsp. strain (ATCC 19636, methicillinresistant), and Candida albicans strain (ATCC 10231).
(§3) All peptides were purchased from Yao-Hong Biotechnology Inc. (Taipei, Taiwan). Vendors provided data of peptide characterizations, including HPLC and Mass (data not shown). Antimicrobial activity was determined as described with some modifications as detailed below. Bacteria were grown overnight in Mueller–Hinton broth (Difco) at 37°C, and during the mid-logarithmic phase, bacteria were diluted to 10^6 CFU (colony formation unit)/ml in phosphate buffer (10 mM sodium phosphate and 50 mM sodium chloride, pH 7.2). Peptides were serially diluted in the same buffer. Fifty microliter (µl) of bacteria was mixed with fifty µl of peptides at varying concentrations followed by incubation at 37°C for 3 hours without shaking. At the end of incubation, bacteria were placed on Mueller-Hinton broth agar plates, and allowed growth at 37°C overnight for measurement of minimal bactericidal concentration (MBC). […] All peptides were tested in triplicate.

[5] = system: Vero cells; test: Cytotoxicity, MTT assay; format: cell-based, monkey; conditions: 1 hour at 37°C; HBc147-183 at 100 µM, melittin at 3.125 µM; triplicates
Method: as §1

[6] = system: K. pneumonia (ATCC 13884); format: cell-based, Klebsiella pneumoniae; conditions: triplicate
[7] = system: E. coli (ATCC 25922); format: cell-based, Escherichia coli; conditions: triplicate
Procedure, shortened: (§4)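 Mid-log cultures grown in Mueller–Hinton broth were diluted to 10^6 CFU/ml in 10 mM sodium phosphate, 50 mM NaCl, pH 7.2, mixed with serially diluted HBc ARD peptides, and held 3 hours at 37°C without shaking. Survivors were plated on Mueller–Hinton agar overnight at 37°C to define MBC; triplicates.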

[8] = system: S. aureus (ATCC 25923); format: cell-based, Staphylococcus aureus; conditions: methicillin-resistant strain, triplicate
Method: as §2, §3

[9] = system: S. aureus (ATCC 19636); format: cell-based, Staphylococcus aureus; conditions: methicillin-resistant strain, triplicate
Method: as §2, §3

[10] = system: S. aureus (ATCC 29213); format: cell-based, Staphylococcus aureus; conditions: methicillin-resistant strain, triplicate
Method: as §2, §3

[11] = system: P. aeruginosa (ATCC 9027); format: cell-based, Pseudomonas aeruginosa; conditions: ampicillin-resistant strain, triplicate
Procedure, shortened: as §4

[12] = system: P. aeruginosa (ATCC 27853); format: cell-based, Pseudomonas aeruginosa; conditions: ampicillin-resistant strain, triplicate
Procedure, shortened: as §4

[13] = 3 h at 37°C in phosphate buffer pH 7.2
[14] = 3 h at 37°C in 10 mM sodium phosphate, 50 mM NaCl, pH 7.2, 10^6 CFU/ml, ND = not detectable

CC[C@H](C)[C@H](NC(=O)CN)C(=O)NCC(=O)N[C@@H](C)C(=O)N[C@H](C(=O)N[C@@H](CC(C)C)C(=O)N[C@@H](CCCCN)C(=O)N[C@H](C(=O)N[C@@H](CC(C)C)C(=O)N[C@H](C(=O)N[C@H](C(=O)NCC(=O)N[C@@H](CC(C)C)C(=O)N1CCC[C@H]1C(=O)N[C@@H](C)C(=O)N[C@@H](CC(C)C)C(=O)N[C@H](C(=O)N[C@@H](CO)C(=O)N[C@@H](Cc1c[nH]c2ccccc12)C(=O)N[C@H](C(=O)N[C@@H](CCCCN)C(=O)N[C@@H](CCCNC(=N)N)C(=O)N[C@@H](CCCCN)C(=O)N[C@@H](CCCNC(=N)N)C(=O)N[C@@H](CCC(N)=O)C(=O)N[C@@H](CCC(N)=O)C(N)=O)[C@@H](C)CC)[C@@H](C)CC)[C@@H](C)O)[C@@H](C)O)C(C)C)C(C)C [Melittin, reference compound]
Cell viability / cytotoxicity (MTT) [1]: significantly decreased | Cell viability / cytotoxicity (MTT) [2]: significantly decreased | Cell viability / cytotoxicity (MTT) [3]: significantly decreased | Antimicrobial activity, MBC ([4]; 3 h at 37°C in 10 mM sodium phosphate, 50 mM NaCl, pH 7.2, ND = not detectable): 4 µM | Antimicrobial activity, MBC [4, 13]: 11.4 µg/mL | Cell viability / cytotoxicity (MTT) [5]: significantly decreased | Antimicrobial activity, MBC [6, 14]: 2 µM | Antimicrobial activity, MBC [6, 13]: 5.7 µg/mL | Antimicrobial activity, MBC [7, 14]: 2 µM | Antimicrobial activity, MBC [7, 13]: 5.7 µg/mL | Antimicrobial activity, MBC [8, 14]: 2 µM | Antimicrobial activity, MBC [8, 13]: 5.7 µg/mL | Antimicrobial activity, MBC [9, 14]: 1 µM | Antimicrobial activity, MBC [9, 13]: 2.85 µg/mL | Antimicrobial activity, MBC [10, 14]: 1 µM | Antimicrobial activity, MBC [10, 13]: 2.85 µg/mL | Antimicrobial activity, MBC [11, 14]: 2 µM | Antimicrobial activity, MBC [11, 13]: 5.7 µg/mL | Antimicrobial activity, MBC [12, 14]: 2 µM | Antimicrobial activity, MBC [12, 13]: 5.7 µg/mL
